Assays:
mature adipocytes = assay: Adipocyte lipolysis assay; format: cell-based; conditions: glycerol in supernatants after overnight culture with IBMX (100 μM)
Method: Preadipocytes purchased from Zen Bio were plated at 8.7×10^4 cells/well in 96-well plates, differentiated for 14 days and mature adipocytes assayed during days 15 through 21. Adipocyte maturation is assessed by the presence of rounded cells with large lipid droplets in the cytoplasm. Following maturation, cells were washed and incubated overnight with IBMX (100 μM) and various concentrations of compound diluted in assay buffer containing a final DMSO concentration of 0.1%. After overnight culture, the glycerol concentration in the supernatants was determined with the Lipolysis Assay Kit purchased from Zen-Bio. Absorbance at 540 nm is directly proportional to the glycerol concentration in the sample. IC50 determinations were based on compound inhibition relative to DMSO controls. […] For example, the compound of Example 1 has an IC50 of 100 nM in this assay.

human HM74a [1] = target: T1, human HM74a (Homo sapiens, UniProt Q8TDS4); assay: GTPγS recruitment assay; format: biochemical; design: expressed in transfected cells; host or cells: HEK293 cells, transient transfection, membrane preparation; conditions: membranes of HEK293 cells transfected with human HM74a and Gα0; 35S GTPγS
Method: Membranes were prepared from HEK293 cells transiently transfected with human HM74a and Gα0 protein. Assays were performed in 384-well format in a volume of 50 μL per assay point. Serial dilutions of compounds were prepared in the assay buffer (20 mM HEPES pH. 7.4, 100 mM NaCl, 10 mM MgCl2, 10 mg/L saponin and 10 μM GDP) and mixed with membranes (2 μg per assay point) and ^35S GTPγS (Amersham, 0.3 nM) in the assay buffer. The mixtures were incubated at room temperature for 30 min and wheat germ agglutinin SPA beads (Amersham) (0.2 mg per assay point) in the assay buffer were added. After 30 min incubation with agitation, plates were centrifuged at 1500 g for 5 min and bound ^35S GTPγS was determined by counting on a TopCount scintillation counter.
Target sequence in this assay (Q8TDS4 whole entry): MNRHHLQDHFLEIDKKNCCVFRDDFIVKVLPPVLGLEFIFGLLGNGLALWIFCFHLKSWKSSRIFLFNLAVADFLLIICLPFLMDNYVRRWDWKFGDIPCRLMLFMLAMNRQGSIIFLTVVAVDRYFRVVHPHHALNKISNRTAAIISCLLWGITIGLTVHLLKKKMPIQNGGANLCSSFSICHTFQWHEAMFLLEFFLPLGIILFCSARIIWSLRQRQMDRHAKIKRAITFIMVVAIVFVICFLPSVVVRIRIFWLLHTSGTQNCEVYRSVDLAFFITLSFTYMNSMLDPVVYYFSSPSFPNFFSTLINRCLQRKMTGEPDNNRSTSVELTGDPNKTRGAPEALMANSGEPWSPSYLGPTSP
Target sequence in this assay (P09471 2-354 partner limits assumed): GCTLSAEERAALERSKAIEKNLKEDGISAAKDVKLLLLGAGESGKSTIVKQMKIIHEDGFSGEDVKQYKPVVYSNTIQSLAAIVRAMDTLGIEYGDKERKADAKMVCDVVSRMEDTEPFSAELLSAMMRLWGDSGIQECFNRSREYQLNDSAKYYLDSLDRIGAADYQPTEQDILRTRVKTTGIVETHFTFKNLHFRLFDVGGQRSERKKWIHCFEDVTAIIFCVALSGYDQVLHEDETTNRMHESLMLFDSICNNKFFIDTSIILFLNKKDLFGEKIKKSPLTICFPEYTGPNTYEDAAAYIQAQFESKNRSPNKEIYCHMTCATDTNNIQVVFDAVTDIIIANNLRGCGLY
Target sequence in this assay (P62873 2-340 partner limits assumed): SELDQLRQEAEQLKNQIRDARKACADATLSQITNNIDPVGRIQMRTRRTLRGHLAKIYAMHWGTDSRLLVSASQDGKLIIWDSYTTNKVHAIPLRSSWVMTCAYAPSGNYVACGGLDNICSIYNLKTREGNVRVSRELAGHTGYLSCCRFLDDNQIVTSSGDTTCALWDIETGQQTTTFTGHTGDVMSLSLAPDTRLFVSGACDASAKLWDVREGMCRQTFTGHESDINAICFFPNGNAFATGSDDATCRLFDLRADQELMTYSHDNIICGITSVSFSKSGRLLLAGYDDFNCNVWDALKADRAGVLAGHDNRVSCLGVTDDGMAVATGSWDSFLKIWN
Target sequence in this assay (P59768 2-68 partner limits assumed): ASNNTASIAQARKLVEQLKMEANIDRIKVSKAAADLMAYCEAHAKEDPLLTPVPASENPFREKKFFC

human HM74a [2] = target: T1, human HM74a; assay: cAMP assay; format: cell-based; design: expressed in transfected cells; conditions: CHO cells stably transfected with human HM74a; 5 μM forskolin; inhibition relative to DMSO controls
Method: CHO cells stably transfected with human HM74a were seeded at 7,500 cells/well in a 96-well plate in HAMS F12 medium with 10% FBS. The plate was incubated overnight at 37° C. and 5% CO2. The test compounds were prepared in a stimulation buffer containing 1×HANKS, 20 mM HEPES, 5 μM forskolin, and 0.25 mM IBMX. The media from the cell plate was removed before adding 30 μL of the test compounds. After 30 minute incubation at 37° C. and 5% CO2, the cAMP level was assayed using HitHunter cAMP XS assay kit (DiscoverX, CA). IC50 determinations were based on compound inhibition relative to DMSO controls.
Target sequence in this assay (Q8TDS4 whole entry): as the sequence (Q8TDS4 whole entry) above

[3] = clinical, cited from earlier work; for lowering of plasma LDL: monotherapy

| IC50 (mature adipocytes) | EC50 (human HM74a [1]) | IC50 (human HM74a [2]) | SMILES | lowering of plasma LDL [3] | decrease of plasma triglycerides [3] | raising HDL levels [3] |
| --- | --- | --- | --- | --- | --- | --- |
| 0.1 µM | 0.061 µM | 0.02 µM | CCCCCn1c(=O)n2cnnc2c2[nH]c(C(F)(F)F)nc21 [Example 1, 6-pentyl-8-(trifluoromethyl)-6,9-dihydro-5H-[1,2,4]triazolo[3,4-i]purin-5-one] | – | – | – |
| – | – | – | O=C1[C@H](CC[C@H](O)c2ccc(F)cc2)[C@@H](c2ccc(O)cc2)N1c1ccc(F)cc1 [Ezetimibe] | 20% | – | – |
| – | – | – | O=C(O)c1cccnc1 [Nicotinic acid, nicotinic acid] | 16% | 38% | 20-30% |

Reference: US7863285B2, “Purinone derivatives as HM74A agonists” (Incyte Corporation, priority 2006, dated 2011)
